Source: US20110021471A1, “REDUCING Abeta42 LEVELS AND Abeta AGGREGATION” (priority 2007, published 2011)

Columns and labels:
Tg2576 mice = experiment: Acute oral dosing of Tg2576 mice, brain soluble Aβ after 4 hours; assay type: in vivo, mouse
Procedure: FIG. 2. Aβ modulating agents can inhibit Aβ aggregation, and agents that bind Aβ amyloid can modulate Aβ42 production. […] (C) Aβ42 modulating agents inhibit naturally secreted oligomer formation. 7PA2 cells were treated with fenofibrate, FT-1, or FT-9 at 50 μM and oligomers assessed by IP Western blotting. […] (D) FT-9, an Aβ42 reducing agent, can inhibit Aβ42 aggregation in vitro.
FIG. 13. Compounds that bind Aβ are GSMs in vitro and in vivo. (A) A cell-based screen of Aβ-binders identified molecules that increase Aβ42 (DAPH) or decrease Aβ42 (Bis-ANS, X-34 or chrysamine G (CG)). Data are mean±s.e.m., n=3. (B) X-34 is an Aβ42-lowering GSM. Changes in amyloid-β peptide amounts after X-34 treatment are shown. Data are presented as percentage control±s.e.m., n=3. EC50 values were calculated. […] NA, not applicable. (C) X-34 binds to APP(C100)-Flag and decreases labeling by GSM photoprobes. Biotin incorporation into APP by Fen-B and Flurbi-BpB is presented as percentage of control (peptide without X-34)±s.e.m., n=2. (D) X-34 lowers Aβ42 in Tg2576 mice after 4 h. […] Data are presented as amyloid-β percentage of control relative to vehicle±s.e.m. Animals per group (n). Asterisk, P,0.05; two asterisks, P,0.01; ANOVA with Dunnett's post-hoc analysis.
Finally, X-34 was tested for its ability to modulate Aβ42 amounts in an APP transgenic mouse (Tg2576).

APP-NOTCH TMD cells = experiment: Aβ modulation in APP-NOTCH TMD cells; assay type: cell-based, human; settings: APP-NOTCH TMD line
Procedure: (A) and (B) The sequences of wildtype (WT; A) APP and the mutated substrate (B) containing the homologous region (italic, underlined) of the NOTCH transmembrane domain (TMD) in APP where GSMs are hypothesized to bind. […] Bottom row, FT-1 ([…]) raised Aβ42 200% in APP wild-type cells (A); however, in APP-NOTCH TMD cells (B), FT-1 caused minimal changes in the Aβ42 (95%) or Aβ40 (90%) signal. Data are presented as amyloid-β percentage of control±s.e.m., n=3.
FIG. 19. Substitution of human Notch sequence in the APP transmembrane domain (TMD) changes sensitivity to modulation. (A) Site-directed mutagenesis was used to exchange the analogous region of the human Notch TMD (bold and underlined) for a section (bold and underlined) of wild-type APP (APPwt) we have shown to be labeled by GSMs. The new substrate (APP-Notch TMD) is cleaved by γ-secretase primarily after valine and alanine residues corresponding to 40 and 42 in APPwt (arrows). […] The beginning (1) N-terminal amino acid (AA) to the ending C-terminal AA is shown above each peak, with the molecular weight (m/z) below. 1-40 and 1-42 are detected as the two major species in APP-Notch TMD conditioned media. It should be noted that the mutagenesis strategy to create APPNotch TMD led to a single AA deletion relative to APPwt. The correct change in molecular weight caused by the introduced mutations were confirmed by the mass spectrum. For simplicity the peptides are referenced by their C-terminal residues relative to Aβ (40, 42, etc). Representative mass spectra are shown from multiple IP reactions (3) and duplicate spots. […] Both cell lines were treated (6 hours) with L-685,458 (10 μM), which is hypothesized to target the active site aspartate residues, media was collected, and analyzed for changes in Aβ levels. The 40 and 42 Aβ reactive species from both cell lines were inhibited by L-685,458 with equal sensitivity (no significant difference; 40 p>0.5; 42 p>0.4; t test; n=3).
To test the hypothesis that mutation of the GSM binding site in APP should alter sensitivity to GSMs, a portion of the GSM binding site in APP was exchanged with the analogous region of human NOTCH (FIGS. 18A and 18B; FIG. 19). The chimeric construct was used because the NOTCH transmembrane domain (TMD) appears resistant to GSM effects. The APP NOTCH TMD construct produced a spectrum of chimeric amyloid-β species in conditioned cell media (FIG. 19). Although the molecular weight and abundance of each chimeric peptide differed from amyloid-β peptides from APP, the main species produced from the APP-NOTCH TMD construct had identical C-termini to Ab1-40 and Ab1-42, and could be quantified by enzyme-linked immunosorbent assays (ELISAs; FIG. 19). The relative sensitivity to GSMs of APP-NOTCH TMD versus APP was assayed in stably transfected cells. […]

`O=C(O)c1cc(C=Cc2ccc(C=Cc3ccc(O)c(C(=O)O)c3)cc2)ccc1O` [X-34, 1,4-bis(3-carboxy-4-hydroxyphenylethenyl)-benzene] was tested, and the “Aβ40 in the brains” value (Tg2576 mice; 100 mg kg21, Tg2576 mice, 4 h) was “no effects”, the “decrease of soluble Aβ42 in the brains” value (Tg2576 mice; 100 mg kg21, Tg2576 mice, 4 h) was 35% and the “selectivity of Aβ reduction (Aβ42 vs Aβ40)” value (Tg2576 mice; Tg2576, oral gavage, 4 hours) was “selective reductions of Aβ42”. The “Aβ40 or Aβ42 concentrations” value (APP-NOTCH TMD cells) was “did not change either Aβ40 or Aβ42 concentrations”.
